Columns and labels:
Type in all cases: in vivo
[1] = tested on: Echinochloa oryzacola Vasing.; test: Test Example 1: herbicidal activity, application before weed generation in submerged conditions; details: Application herbicide amount 320 g/ha; Seventeenth Table
In short: (§1)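 Submerged pot test: alluvial soil, 4 cm water, seeds sown mixed, 2.5-leaf rice transplanted; emulsion in water applied to surface day of sowing, dose g/ha; greenhouse 25–30° C.; 3 wk; 0–5 rating.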

Monochoria vaginalis = test: as above; details: Application herbicide amount 320 g/ha; Seventeenth Table
In short: as §1

Scirpus juncoides = test: as above; details: Application herbicide amount 320 g/ha; Seventeenth Table
In short: as §1

[2] = tested on: transplanted Oryza sativa; test: Test Example 1: effect on crop, application before weed generation in submerged conditions; details: Application herbicide amount 320 g/ha; Seventeenth Table
In short: as §1

Cyperus difformis = test: Test Example 3: herbicidal effect by application to foliage (Wagner pot, water depth 0.1-0.5 cm); details: Nineteenth Table; application to foliage; application herbicide amount 320 g/ha
In short: (§2)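 Scores (0–5) reflect herbicidal ratio three weeks after a foliar spray: 0 is 5% or less, 5 is 90% or more. Plants had grown 14 days in alluvial soil pots in a 25–30 °C greenhouse before treatment with water-diluted emulsion at a set g/ha.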

[3] = tested on: Echinochloa crus-galli var. crus-galli; test: as above; details: Nineteenth Table; application to foliage; application herbicide amount 320 g/ha
In short: as §2

Leptochloa chinensis = test: as above; details: Nineteenth Table; application to foliage; application herbicide amount 320 g/ha
In short: as §2

[4] = tested on: directly sowed Oryza sativa; test: Test Example 3: effect on crop by application to foliage (Wagner pot, water depth 0.1-0.5 cm); details: Nineteenth Table; application to foliage; application herbicide amount 320 g/ha
In short: as §2

| SMILES | A: Echinochloa oryzicola Vasing. (herbicidal effect grade) [1] | C: Monochoria vaginalis (herbicidal effect grade) (Monochoria vaginalis) | B: Scirpus juncoides (herbicidal effect grade) (Scirpus juncoides) | a: transplanted Oryza sativa (effect on crop grade) [2] | E (herbicidal effect grade) (Cyperus difformis) | H (herbicidal effect grade) [3] | D (herbicidal effect grade) (Leptochloa chinensis) | b (effect on crop grade) [4] |
| --- | --- | --- | --- | --- | --- | --- | --- | --- |
| C#CCSc1nnc2c(C(=O)Nc3nnc(C)o3)ccc(C(F)(F)F)n12 [1-065] | 5 (Herbicidal ratio of 90% or more (almost completely withered)) | 2 (Herbicidal ratio of 20% or more and less than 40%) | 3 (Herbicidal ratio of 40% or more and less than 70%) | 0 (Herbicidal ratio of 5% or less (almost no effect)) | 3 (Herbicidal ratio of 40% or more and less than 70%) | 3 (Herbicidal ratio of 40% or more and less than 70%) | 1 (Herbicidal ratio of 5% or more and less than 20%) | 0 (Herbicidal ratio of 5% or less (almost no effect)) |
| CC(C)Sc1nnc2c(C(=O)Nc3nnco3)ccc(C(F)(F)F)n12 [1-091] | 5 (Herbicidal ratio of 90% or more (almost completely withered)) | 5 (Herbicidal ratio of 90% or more (almost completely withered)) | 5 (Herbicidal ratio of 90% or more (almost completely withered)) | 0 (Herbicidal ratio of 5% or less (almost no effect)) | 5 (Herbicidal ratio of 90% or more (almost completely withered)) | 5 (Herbicidal ratio of 90% or more (almost completely withered)) | 5 (Herbicidal ratio of 90% or more (almost completely withered)) | 0 (Herbicidal ratio of 5% or less (almost no effect)) |
| Cc1nnc(NC(=O)c2ccc(C(F)(F)F)n3c(CC[S+](C)[O-])nnc23)o1 (stereo not drawn) [1-084] | 2 (Herbicidal ratio of 20% or more and less than 40%) | 2 (Herbicidal ratio of 20% or more and less than 40%) | 3 (Herbicidal ratio of 40% or more and less than 70%) | 0 (Herbicidal ratio of 5% or less (almost no effect)) | 5 (Herbicidal ratio of 90% or more (almost completely withered)) | 5 (Herbicidal ratio of 90% or more (almost completely withered)) | 5 (Herbicidal ratio of 90% or more (almost completely withered)) | 2 (Herbicidal ratio of 20% or more and less than 40%) |
| Cc1nnc(NC(=O)c2cc(C)c(C(F)(F)F)n3c(C(C)C)nnc23)o1 [1-075] | 2 (Herbicidal ratio of 20% or more and less than 40%) | 2 (Herbicidal ratio of 20% or more and less than 40%) | 0 (Herbicidal ratio of 5% or less (almost no effect)) | 0 (Herbicidal ratio of 5% or less (almost no effect)) | 4 (Herbicidal ratio of 70% or more and less than 90%) | 5 (Herbicidal ratio of 90% or more (almost completely withered)) | 4 (Herbicidal ratio of 70% or more and less than 90%) | 1 (Herbicidal ratio of 5% or more and less than 20%) |
| Cc1nnc(NC(=O)c2ccc(C(F)(F)F)n3c(C(C)[S+](C)[O-])nnc23)o1 (stereo not drawn) [1-079] | 4 (Herbicidal ratio of 70% or more and less than 90%) | 3 (Herbicidal ratio of 40% or more and less than 70%) | 4 (Herbicidal ratio of 70% or more and less than 90%) | 4 (Herbicidal ratio of 70% or more and less than 90%) | 5 (Herbicidal ratio of 90% or more (almost completely withered)) | 5 (Herbicidal ratio of 90% or more (almost completely withered)) | 5 (Herbicidal ratio of 90% or more (almost completely withered)) | 5 (Herbicidal ratio of 90% or more (almost completely withered)) |
| CSC(C)c1nnc2c(C(=O)Nc3nnc(C)o3)ccc(C(F)(F)F)n12 (stereo not drawn) [1-078] | 4 (Herbicidal ratio of 70% or more and less than 90%) | 3 (Herbicidal ratio of 40% or more and less than 70%) | 4 (Herbicidal ratio of 70% or more and less than 90%) | 4 (Herbicidal ratio of 70% or more and less than 90%) | 5 (Herbicidal ratio of 90% or more (almost completely withered)) | 5 (Herbicidal ratio of 90% or more (almost completely withered)) | 5 (Herbicidal ratio of 90% or more (almost completely withered)) | 5 (Herbicidal ratio of 90% or more (almost completely withered)) |
| COc1cccc(Nc2nnc3c(C(=O)Nc4nnc(C)o4)ccc(C(F)(F)F)n23)n1 [1-102] | 3 (Herbicidal ratio of 40% or more and less than 70%) | 2 (Herbicidal ratio of 20% or more and less than 40%) | 2 (Herbicidal ratio of 20% or more and less than 40%) | 2 (Herbicidal ratio of 20% or more and less than 40%) | 4 (Herbicidal ratio of 70% or more and less than 90%) | 4 (Herbicidal ratio of 70% or more and less than 90%) | 5 (Herbicidal ratio of 90% or more (almost completely withered)) | 2 (Herbicidal ratio of 20% or more and less than 40%) |
| Cc1nnc(NC(=O)c2ccc(C(F)(F)F)n3c(NC(C)C)nnc23)o1 [1-090] | 3 (Herbicidal ratio of 40% or more and less than 70%) | 2 (Herbicidal ratio of 20% or more and less than 40%) | 4 (Herbicidal ratio of 70% or more and less than 90%) | 0 (Herbicidal ratio of 5% or less (almost no effect)) | 5 (Herbicidal ratio of 90% or more (almost completely withered)) | 5 (Herbicidal ratio of 90% or more (almost completely withered)) | 5 (Herbicidal ratio of 90% or more (almost completely withered)) | 0 (Herbicidal ratio of 5% or less (almost no effect)) |
| Cc1nnc(NC(=O)c2ccc(C(F)(F)F)n3c(Nc4ccccc4)nnc23)o1 [1-082] | 3 (Herbicidal ratio of 40% or more and less than 70%) | 2 (Herbicidal ratio of 20% or more and less than 40%) | 2 (Herbicidal ratio of 20% or more and less than 40%) | 0 (Herbicidal ratio of 5% or less (almost no effect)) | 4 (Herbicidal ratio of 70% or more and less than 90%) | 4 (Herbicidal ratio of 70% or more and less than 90%) | 4 (Herbicidal ratio of 70% or more and less than 90%) | 0 (Herbicidal ratio of 5% or less (almost no effect)) |
| Cc1cc(-c2nnc3c(C(=O)Nc4nnc(C)o4)ccc(C(F)(F)F)n23)n(C)n1 [1-056] | 5 (Herbicidal ratio of 90% or more (almost completely withered)) | 4 (Herbicidal ratio of 70% or more and less than 90%) | 5 (Herbicidal ratio of 90% or more (almost completely withered)) | 3 (Herbicidal ratio of 40% or more and less than 70%) | 5 (Herbicidal ratio of 90% or more (almost completely withered)) | 5 (Herbicidal ratio of 90% or more (almost completely withered)) | 5 (Herbicidal ratio of 90% or more (almost completely withered)) | 4 (Herbicidal ratio of 70% or more and less than 90%) |
| Cc1nnc(NC(=O)c2ccc(C(F)(F)F)n3c(-c4cccs4)nnc23)o1 [1-057] | 5 (Herbicidal ratio of 90% or more (almost completely withered)) | 4 (Herbicidal ratio of 70% or more and less than 90%) | 5 (Herbicidal ratio of 90% or more (almost completely withered)) | 2 (Herbicidal ratio of 20% or more and less than 40%) | 5 (Herbicidal ratio of 90% or more (almost completely withered)) | 5 (Herbicidal ratio of 90% or more (almost completely withered)) | 5 (Herbicidal ratio of 90% or more (almost completely withered)) | 3 (Herbicidal ratio of 40% or more and less than 70%) |
| Cc1nnc(NC(=O)c2ccc(C(F)(F)F)n3c(-c4cccc(Cl)n4)nnc23)o1 [1-055] | 4 (Herbicidal ratio of 70% or more and less than 90%) | 4 (Herbicidal ratio of 70% or more and less than 90%) | 4 (Herbicidal ratio of 70% or more and less than 90%) | 1 (Herbicidal ratio of 5% or more and less than 20%) | 5 (Herbicidal ratio of 90% or more (almost completely withered)) | 5 (Herbicidal ratio of 90% or more (almost completely withered)) | 4 (Herbicidal ratio of 70% or more and less than 90%) | 2 (Herbicidal ratio of 20% or more and less than 40%) |
